According to PMC12173945, “Import mechanism of peroxisomal proteins with an N-terminal signal sequence” (Nature Cell Biology, 2025):

Legend:
[1] = test system: YG hydrogel (wild-type YG-domain polypeptide of PEX13); assay: YG hydrogel permeation assay, wild-type hydrogel (Fig. 2, Fig. 3g, Extended Data Fig. 9d); conditions: PEX5-21 + PEX7
Procedure: A solution of the purified wild-type YG-domain polypeptide (or the variant lacking the KPWE motif) was concentrated to 2 mM in 50 mM HEPES·NaOH pH 7.8 at RT, 2 M urea and 2 mM TCEP. Aliquots of 2 µl were then spotted on the bottom of multiple wells of a 96-well glass-bottomed plate (Cellvis, P96-1.5H-N), which was then sealed with a gas-impermeable AlumaSeal II film (Hampton Research, HR8-069) to prevent desiccation and incubated at RT for 24 h. Before each assay, the resulting gels were equilibrated overnight at RT in a 100-fold excess of Assay Buffer (25 mM HEPES·NaOH pH 7.8 at RT, 150 mM NaCl and 1 mM TCEP). A 0.5 µM solution of fluorescently labelled protein in Assay Buffer was then added to the samples, with or without additional components at the concentrations indicated in the text, and incubated at RT. Gels were imaged at the times indicated in the text using a Nikon A1R point-scanning confocal system consisting of an inverted Nikon Eclipse Ti microscope and a Nikon ×20 0.75 NA Plan Apo air objective. The objective was centred on the gel edge and focus was maintained 5 µm above the glass surface using the Nikon Perfect Focus System. Fluorescence was excited through a 405/488/561/647 quad-band dichroic (Chroma), using a 488-nm solid-state laser (Coherent) and a galvano scanner. A 50-nm emission band was collected on a gallium arsenide phosphide detector, using an ET525/50m (525 ± 25 nm) single-band bandpass filter (Chroma) and a pinhole dilated to 0.9 Airy units. Images were acquired using the Nikon NIS-Elements software with a pixel size of 1 µm and a 12-bit digitizer. Imaging parameters were configured to maximize the SNR while avoiding saturation. All samples intended to be compared were imaged using identical acquisition settings.
For the YG hydrogel permeation assay, images were first oriented such that each gel edge faced the same direction. Fluorescence profiles across the buffer–gel interface were then generated by centering a 60 × 300 µm rectangular area on the gel edge and then measuring the mean fluorescence at each position within this selection. To express the resulting values in terms of fold enrichment, the fluorescence at each position along the selection was normalized to the average fluorescence in the buffer and plotted in terms of the distance from the gel edge.
To calculate permeation rates through the YG hydrogel, a 60 × 300 µm rectangular area was first centred on the gel edge. The resulting region was then thresholded to demarcate the permeation zone (that is, the distance traversed by the fluorescent species) from the buffer and non-permeated part of the gel. The width of the area above the threshold was then measured and plotted as a function of time. A linear fit to the data yielded the permeation rate.

[2] = test system: yeast PEX7 bound to the ∆APH mutant of GST-tagged PEX39; assay: Competitive binding: peptide displacement of PEX7 from GST-tagged ∆APH PEX39 beads (Fig. 8b); set-up: species or system yeast (S. cerevisiae); conditions: for Stripping of PEX7 off PEX39 lacking the APH: peptide competition, Fig. 8b
Procedure: For the assay shown in Fig. 8b, the beads were first incubated with yeast PEX7 and the GST-tagged ∆APH variant of yeast PEX39 (each at 1 µM) for 30 min at 25 °C with agitation. Varying concentrations of the peptides, as indicated in the text, were then added and the reactions were incubated for a further 1 h under the same conditions. The beads were finally sedimented and the resulting supernatant fractions resolved by SDS–PAGE as above.
To calculate the fraction bound in the quantitative binding assay, digitized images of Coomassie-stained gels were first converted into 16-bit grayscale and their pixel intensities inverted. The mean pixel intensity was then measured within a rectangular selection encompassing each PEX7 protein band and the mean intensity of the background was subtracted from the measured values. The background-corrected intensities (corresponding to unbound PEX7 remaining in solution) were in turn subtracted from the intensity of the PEX7 band in a sample without PEX39 (that is, total PEX7). The resulting difference (corresponding to PEX7 that had bound to the beads) was finally divided by the total PEX7 intensity to yield the fraction bound. The data were fitted either to a standard binding isotherm or a competitive-binding isotherm, as appropriate, to estimate the observed binding constants.

[3] = test system: PEX7–receptor–cargo complex on PEX39-coated beads; assay: Bead-binding assay: recruitment of PEX7–receptor–cargo complex to PEX39-coated beads (Fig. 7d, 8a); set-up: species or system yeast (S. cerevisiae); conditions: 100 µM peptide, overnight, Fig. 8a
From the text: (§1) Cysteine-containing peptides were covalently conjugated to thiol-reactive SulfoLink coupling resin (Thermo Fisher, catalogue number 20401) according to the manufacturer’s instructions. The prepared beads were then mixed with Assay Buffer containing the fluorescently labelled protein as well as additional components indicated in the text, and the resulting bead suspensions were transferred to a 384-well glass-bottomed plate (Cellvis, P384-1.5H-N). GST-fusion proteins were instead mixed with glutathione agarose 4B (Prometheus, 20-543) in Assay Buffer containing the fluorescently labelled protein and additional components indicated in the text; the resulting bead suspensions were then transferred to a glass-bottomed plate as above. The plates were incubated at RT for the durations specified in the text and directly imaged on the spinning-disk confocal platform described earlier for peroxisomal import reactions in Xenopus egg extract. Note that imaging the beads directly in the binding reaction preserves the equilibrium and thereby allows even weak interactions to be detected. Fluorescence was collected through a Nikon ×10 0.45 NA Plan Apo air objective, and images were acquired using the Nikon NIS-Elements software and a 16-bit digitizer without binning. Imaging parameters were configured to maximize the SNR while avoiding saturation. Samples intended to be compared were imaged using identical acquisition settings.

[4] = test system: yeast PEX7; assay: Bead-binding assay: peptide-conjugated beads, recruitment of PEX7–GFP or PTS2–GFP; set-up: species or system yeast (S. cerevisiae); conditions: 1 h; for Recruitment of PTS2–GFP to peptide-conjugated beads: 1 µM PEX7 and 1 µM receptor, 1 µM cargo; for Recruitment of PEX7–GFP to peptide-conjugated beads: peptide on thiol-reactive beads, fluorescence microscopy
From the text: as §1

Substance	Fraction bound ([2]; [Peptide] 10 µM, replicate 1)	Fraction bound ([2]; [Peptide] 10 µM, replicate 2)	Fraction bound ([2]; [Peptide] 10 µM, replicate 3)	Fraction bound ([2]; [Peptide] 30 µM, replicate 1)	Fraction bound ([2]; [Peptide] 30 µM, replicate 2)	Fraction bound ([2]; [Peptide] 30 µM, replicate 3)	Fraction bound ([2]; [Peptide] 100 µM, replicate 1)	Fraction bound ([2]; [Peptide] 100 µM, replicate 2)	Fraction bound ([2]; [Peptide] 100 µM, replicate 3)	Fraction bound ([2]; [Peptide] 300 µM, replicate 1)	Fraction bound ([2]; [Peptide] 300 µM, replicate 2)	Fraction bound ([2]; [Peptide] 300 µM, replicate 3)	Fraction bound ([2]; [Peptide] 1000 µM, replicate 1)	Fraction bound ([2]; [Peptide] 1000 µM, replicate 2)	Fraction bound ([2]; [Peptide] 1000 µM, replicate 3)	Stripping of PEX7 off PEX39 lacking the APH [2]	Effect of peptide on recruitment of the PEX7–receptor–cargo complex to PEX39-coated beads [3]	Recruitment of PTS2–GFP to peptide-conjugated beads [4]	Recruitment of PEX7–GFP to peptide-conjugated beads [4]	further results
PTS1: mEGFP fused at the C terminus to an enhanced PTS1 import signal (GYKGLKSKL)																				Displacement ([1]; 0 min, replicate 1): 0.000 µm; Displacement ([1]; 0 min, replicate 2): 0.000 µm; Displacement ([1]; 0 min, replicate 3): 0.000 µm; Displacement ([1]; 30 min, replicate 1): 44.992 µm; Displacement ([1]; 30 min, replicate 2): 39.993 µm; Displacement ([1]; 30 min, replicate 3): 31.994 µm; Displacement ([1]; 60 min, replicate 1): 64.988 µm; Displacement ([1]; 60 min, replicate 2): 59.989 µm; Displacement ([1]; 60 min, replicate 3): 45.992 µm
CSSTAVPRPKPWETSASLEE [KPWE peptide, residues 2–20 of S. cerevisiae PEX13 with an additional N-terminal cysteine]	0.810	0.769	0.841	0.666	0.688	0.732	0.458	0.521	0.552	0.302	0.372	0.402	0.141	0.198	0.200	could strip off PEX7 from PEX39 lacking the APH	no longer efficiently recruited to PEX39-coated beads	could recruit PTS2–GFP only when PEX7 and the receptor were both present	could recruit yeast PEX7 fused at the C terminus to GFP	Kobs (observed binding constant) ([2]; PEX7 and GST-PEX39 ∆APH each 1 µM, peptide added 1 h, 25 °C, competitive-binding isotherm, mean ± s.e.m., three independent experiments, ND = binding not detectable): 41 ± 1.2 µM
CSSTAVPEPRWKPTSASLEE [scrambled peptide, KPWE peptide with amino acids 8 and 10–13 rearranged]	0.936	0.865	0.914	0.947	0.840	0.887	0.965	0.864	0.888	0.952	0.871	0.887	0.902	0.861	0.848	could not	had no effect	No binding was seen	could not	
